From US12398111B2, “Triazine compounds and pharmaceutical use thereof” (Japan Tobacco Inc., priority 2014, dated 2025)
pIC50: −log10 of the molar value.

biological target: T1, human mPGES-1 (Homo sapiens, UniProt O14684); test: Evaluation of human mPGES-1 enzyme inhibitory activity (PGE2 measured by HTRF, microsome fraction of CHO-S cells expressing human mPGES-1); assay type: biochemical; conditions: IC50 value; microsome fraction of CHO-S cells expressing human mPGES-1, PGE2 by HTRF
T1 construct: made in house; host or cells: FreeStyle CHO-S cells (Chinese hamster ovary), transient transfection with pcDNA3.1(+)/human mPGES-1; microsome fraction used
T1 sequence (O14684 1-152): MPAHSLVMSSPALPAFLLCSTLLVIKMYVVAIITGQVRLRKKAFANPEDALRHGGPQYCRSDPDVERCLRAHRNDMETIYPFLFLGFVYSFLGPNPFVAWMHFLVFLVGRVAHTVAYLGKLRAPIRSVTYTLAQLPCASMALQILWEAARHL
How it was run: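 Enzyme source: microsomes from CHO-S cells transfected with human mPGES-1 and cultured 48 hr, diluted to 5 μg/mL protein in reduced GSH (12.5 mmol/L KPB solution). Test articles were in 0.1 mol/L potassium phosphate pH 7.4, final DMSO 2% (v/v). PGE2 formed was quantified by HTRF.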

Compound	pIC50
CCC(CC)C(=O)N(C)Cc1ccc(Cl)c(-c2nc(O)nc(-c3ccccc3)n2)c1 [Example 1-233]	6.07
COC(C)(C)C(=O)N(C)Cc1ccc(Cl)c(-c2nc(O)nc(-c3ccccc3)n2)c1 [Example 1-234]	6.00
CCN(Cc1ccc(Cl)c(-c2nc(O)nc(-c3ccc(OCC(C)(C)C)cc3)n2)c1)C(=O)C(C)(C)C(F)(F)F [Example 1-235]	7.15
CC1(C)CN(Cc2ccc(Cl)c(-c3nc(O)nc(-c4ccccc4)n3)c2)C1=O [Example 1-236]	6.58
CN(Cc1ccc(Cl)c(-c2nc(O)nc(-c3ccccc3)n2)c1)C(=O)C(C)(C)c1ccccc1 [Example 1-237]	5.89
CN(Cc1ccc(Cl)c(-c2nc(O)nc(-c3ccccc3)n2)c1)C(=O)C1(C(F)(F)F)CCCC1 [Example 1-238]	8.13
COCC(C)(C)C(=O)N(C)Cc1ccc(Cl)c(-c2nc(O)nc(-c3ccccc3)n2)c1 [Example 1-239]	6.37
CC1(C)CCN(Cc2ccc(Cl)c(-c3nc(O)nc(-c4ccccc4)n3)c2)C1=O [Example 1-240]	6.37
CC1(C)CCCN(Cc2ccc(Cl)c(-c3nc(O)nc(-c4ccccc4)n3)c2)C1=O [Example 1-241]	6.56
CO[C@](C)(C(=O)N(C)Cc1ccc(Cl)c(-c2nc(O)nc(-c3ccccc3)n2)c1)C(F)(F)F [Example 1-242]	7.09
CO[C@@](C)(C(=O)N(C)Cc1ccc(Cl)c(-c2nc(O)nc(-c3ccccc3)n2)c1)C(F)(F)F [Example 1-243]	6.92
CN(Cc1ccc(Cl)c(-c2nc(O)nc(-c3ccccc3)n2)c1)C(=O)C1(C(F)(F)F)CCCCC1 [Example 1-244]	7.68
CCCC(C)(C)C(=O)N(C)Cc1ccc(Cl)c(-c2nc(O)nc(-c3ccccc3)n2)c1 [Example 1-245]	6.97
CN(Cc1ccc(Cl)c(-c2nc(O)nc(-c3ccccc3)n2)c1)C(=O)C1Cc2ccccc2C1 [Example 1-246]	6.51
O=C(NCc1ccc(Cl)c(-c2nc(O)nc(-c3ccccc3)n2)c1)C1(CO)CCCCC1 [Example 1-247]	7.96
O=C1N(Cc2ccc(Cl)c(-c3nc(O)nc(-c4ccccc4)n3)c2)CC12CCCCC2 [Example 1-248]	7.80
CN(Cc1ccc(Cl)c(-c2nc(O)nc(-c3ccccc3)n2)c1)C(=O)C(C)(C)Cc1ccccc1 [Example 1-249]	6.65
CCC(CC)(CO)C(=O)NCc1ccc(Cl)c(-c2nc(O)nc(-c3ccccc3)n2)c1 [Example 1-250]	7.92
CCC1(CC)CN(Cc2ccc(Cl)c(-c3nc(O)nc(-c4ccccc4)n3)c2)C1=O [Example 1-251]	7.74
CCO[C@](C)(C(=O)N(C)Cc1ccc(Cl)c(-c2nc(O)nc(-c3ccccc3)n2)c1)C(F)(F)F [Example 1-252]	6.29
CCO[C@@](C)(C(=O)N(C)Cc1ccc(Cl)c(-c2nc(O)nc(-c3ccccc3)n2)c1)C(F)(F)F [Example 1-253]	6.10
O=C(NCc1ccc(Cl)c(-c2nc(O)nc(-c3ccccc3)n2)c1)C1(CO)CCCC1 [Example 1-254]	7.52
O=C1N(Cc2ccc(Cl)c(-c3nc(O)nc(-c4ccccc4)n3)c2)CC12CCCC2 [Example 1-255]	7.35
CC1(C)C(=O)N(Cc2ccc(Cl)c(-c3nc(O)nc(-c4ccccc4)n3)c2)c2ccccc21 [Example 1-258, 1-[4-chloro-3-(4-hydroxy-6-phenyl-1,3,5-triazin-2-yl)-benzyl]-3,3-dimethyl-1,3-dihydroindol-2-one]	5.72

Compound	pIC50
CCCC(CO)(CCC)C(=O)NCc1ccc(Cl)c(-c2nc(O)nc(-c3ccccc3)n2)c1 [Example 1-259]	6.75
CCCC1(CCC)CN(Cc2ccc(Cl)c(-c3nc(O)nc(-c4ccccc4)n3)c2)C1=O [Example 1-260]	6.83
CC1(C(=O)NCc2ccc(Cl)c(-c3nc(O)nc(-c4ccccc4)n3)c2)Cc2ccccc2C1 [Example 1-262]	8.15
CCN(Cc1ccc(Cl)c(-c2nc(O)nc(-c3ccccc3)n2)c1)C(=O)C(C)(C)C(F)(F)F [Example 1-263, N-[4-chloro-3-(4-hydroxy-6-phenyl-1,3,5-triazin-2-yl)benzyl]-N-ethyl-3,3,3-trifluoro-2,2-dimethylpropionamide]	6.15
CN(Cc1ccc(Cl)c(-c2nc(O)nc(-c3ccccc3)n2)c1)C(=O)C1(C)Cc2ccccc2C1 [Example 1-264]	6.79
CC(C)(C)OC(=O)N1CCC2(CC1)CCN(Cc1ccc(Cl)c(-c3nc(O)nc(-c4ccccc4)n3)c1)C2=O [Example 1-265]	7.25
Cc1cccc(C)c1-c1nc(O)nc(-c2ccc(C(F)(F)F)cc2)n1 [Example 2-1]	6.55
Cc1cccc(C)c1-c1nc(O)nc(-c2ccccc2)n1 [Example 2-2]	4.67
Cc1cc(C(F)(F)F)ccc1-c1nc(O)nc(-c2c(C)cccc2C)n1 [Example 2-3]	4.83
COc1cccc(Cl)c1-c1nc(O)nc(-c2ccc(C(F)(F)F)cc2)n1 [Example 2-4]	7.18
Cc1cccc(C)c1-c1nc(O)nc(-c2ccc(OCc3ccccc3)cc2)n1 [Example 2-5]	7.00
Cc1cccc(C)c1-c1nc(O)nc(-c2ccc(C(C)(C)C)cc2)n1 [Example 2-7]	5.46
Cc1cccc(C)c1-c1nc(O)nc(-c2ccc(C(C)C)cc2)n1 [Example 2-8]	5.72
Cc1cccc(C)c1-c1nc(O)nc(-c2ccc(C(F)(F)F)cc2F)n1 [Example 2-9]	5.19
Oc1nc(-c2ccc(C(F)(F)F)cc2)nc(-c2c(F)cccc2Cl)n1 [Example 2-10]	7.14
Cc1cccc(C)c1-c1nc(O)nc(-c2ccc(C#Cc3ccccc3)cc2)n1 [Example 2-11]	8.22
Cc1cccc(C)c1-c1nc(O)nc(-c2ccc(CCc3ccccc3)cc2)n1 [Example 2-12]	6.85
Cc1cccc(-c2nc(O)nc(-c3c(C)cccc3C)n2)c1 [Example 2-13]	4.64
COc1cccc(-c2nc(O)nc(-c3c(C)cccc3C)n2)c1 [Example 2-14]	4.84
Cc1cccc(C)c1-c1nc(O)nc(-c2cccc(F)c2)n1 [Example 2-15]	4.79
Oc1nc(-c2ccc(C(F)(F)F)cc2)nc(-c2c(O)cccc2Cl)n1 [Example 2-16]	6.39
CCOc1cccc(Cl)c1-c1nc(O)nc(-c2ccc(C(F)(F)F)cc2)n1 [Example 2-17]	7.41
Cc1cccc(C)c1-c1nc(O)nc(-c2ccc(C#CC3CCCCC3)cc2)n1 [Example 2-18]	8.10
Cc1cccc(Cl)c1-c1nc(O)nc(-c2ccc(C(F)(F)F)cc2)n1 [Example 2-19]	6.68

Compound	pIC50
CCCOc1cccc(Cl)c1-c1nc(O)nc(-c2ccc(C(F)(F)F)cc2)n1 [Example 2-20]	7.28
CC(C)Oc1cccc(Cl)c1-c1nc(O)nc(-c2ccc(C(F)(F)F)cc2)n1 [Example 2-21]	6.47
OCCOc1cccc(Cl)c1-c1nc(O)nc(-c2ccc(C(F)(F)F)cc2)n1 [Example 2-22]	6.66
OCCCOc1cccc(Cl)c1-c1nc(O)nc(-c2ccc(C(F)(F)F)cc2)n1 [Example 2-23]	6.81
Cc1cccc(C)c1-c1nc(O)nc(-c2ccc(F)cc2)n1 [Example 2-24]	5.62
Cc1cccc(C)c1-c1nc(O)nc(-c2ccc(Cl)cc2)n1 [Example 2-25]	6.60
Cc1ccc(-c2nc(O)nc(-c3c(C)cccc3C)n2)cc1 [Example 2-26]	5.57
COc1ccc(-c2nc(O)nc(-c3c(C)cccc3C)n2)cc1 [Example 2-27]	5.11
Cc1cccc(C)c1-c1nc(O)nc(-c2cccc(C(F)(F)F)c2)n1 [Example 2-28]	5.43
Cc1cccc(C)c1-c1nc(O)nc(-c2cccc(OCc3ccccc3)c2)n1 [Example 2-29]	6.30
CCCCOc1cccc(Cl)c1-c1nc(O)nc(-c2ccc(C(F)(F)F)cc2)n1 [Example 2-31]	7.51
Oc1nc(-c2ccc(C(F)(F)F)cc2)nc(-c2c(Cl)cccc2OCc2ccccc2)n1 [Example 2-32]	7.85
CC(C)COc1cccc(Cl)c1-c1nc(O)nc(-c2ccc(C(F)(F)F)cc2)n1 [Example 2-33]	6.99
COCCOc1cccc(Cl)c1-c1nc(O)nc(-c2ccc(C(F)(F)F)cc2)n1 [Example 2-34]	6.79
COc1cccc(Cl)c1-c1nc(O)nc(-c2ccc(OCc3ccccc3)cc2)n1 [Example 2-35]	7.77
Oc1nc(-c2ccc(C(F)(F)F)cc2)nc(-c2c(Cl)cccc2OCC(F)(F)F)n1 [Example 2-36]	7.28
Cc1cccc(C)c1-c1nc(O)nc(-c2ccc(OCC3CCCCC3)cc2)n1 [Example 2-37]	7.39
Cc1cccc(C)c1-c1nc(O)nc(-c2ccc(OC(C)C)cc2)n1 [Example 2-38]	6.00
Cc1cccc(C)c1-c1nc(O)nc(-c2ccc(CC(C)C)cc2)n1 [Example 2-39]	6.35
CCOc1ccc(-c2nc(O)nc(-c3c(C)cccc3C)n2)cc1 [Example 2-40]	5.89
CCCOc1ccc(-c2nc(O)nc(-c3c(C)cccc3C)n2)cc1 [Example 2-41]	6.37
Cc1cccc(C)c1-c1nc(O)nc(-c2ccc(OCC(C)C)cc2)n1 [Example 2-42]	6.62
Cc1cccc(C)c1-c1nc(O)nc(-c2ccc(O[C@@H](C)c3ccccc3)cc2)n1 [Example 2-43]	6.24

same assay, conditions: at 30 μM test article

Compound	inhibition at 30 µM [%]
CCC(=O)N(CC)Cc1ccc(Cl)c(-c2nc(O)nc(-c3ccccc3)n2)c1 [Example 1-261]	44
Cc1cccc(C)c1-c1nc(O)nc(-c2ccc(O)cc2)n1 [Example 2-6]	28
Cc1cccc(C)c1-c1nc(O)nc(-c2cccc(O)c2)n1 [Example 2-30]	43
